The source made the active and inactive calls.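 Rule for the calls: active = more than half of replicate measurements showing over 20% loss of kinase signal relative to plate controls; inconclusive = some but at most half of replicates over 20% loss; inactive = no replicate over 20% signal loss.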

The AC50 is the concentration giving half of the maximal activity seen.

For the test, the target named is Glycogen synthase kinase-3 alpha (Homo sapiens) (UniProt P49840). The experiment in a line: concentration-response blocking of human GSK3A – biochemical, luminescence, cell-free homogeneous, retest, dose response (AID 463203). To be noted: GSK-3 alpha enzyme, ADP-Glo luminescence, 60 min.
Glycogen synthase kinase-3 alpha (Homo sapiens), sequence (P49840 whole entry, looked up): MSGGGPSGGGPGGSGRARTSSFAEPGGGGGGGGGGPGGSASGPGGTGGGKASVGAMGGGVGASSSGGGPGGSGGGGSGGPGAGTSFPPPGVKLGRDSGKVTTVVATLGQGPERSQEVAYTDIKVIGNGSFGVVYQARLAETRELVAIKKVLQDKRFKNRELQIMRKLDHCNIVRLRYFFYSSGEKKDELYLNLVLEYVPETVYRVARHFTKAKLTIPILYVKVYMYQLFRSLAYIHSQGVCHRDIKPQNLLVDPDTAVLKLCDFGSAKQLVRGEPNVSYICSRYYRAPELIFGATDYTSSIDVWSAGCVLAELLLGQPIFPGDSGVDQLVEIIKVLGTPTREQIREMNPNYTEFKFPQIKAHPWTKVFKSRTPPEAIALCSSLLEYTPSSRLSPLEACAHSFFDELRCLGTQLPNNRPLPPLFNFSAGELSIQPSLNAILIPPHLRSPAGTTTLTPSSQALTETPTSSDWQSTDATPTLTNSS
`CCOC(=O)c1nnn(-c2nonc2-n2cccc2)c1C`: the AC50 was > 30 µM (inactive).
For the compound `CN1CCN(Cc2c(C(=O)N/N=C/c3cccc(Br)c3)nnn2-c2nonc2N)CC1`, the AC50 was 20.2 µM.
To `CCOC(=O)c1cc(CC)sc1NC(=O)CN1CCN(C(=O)c2ccco2)CC1` belongs > 30 µM (inactive).
To `C[C@H]1CN([C@@H](C)CO)C(=O)c2cccc(NC(=O)c3cnccn3)c2O[C@@H]1CN(C)S(=O)(=O)c1ccc(F)cc1` belongs 7.19 µM; to `CN1CCN(c2ccccc2NC(=O)c2ccc(-c3ccccc3[N+](=O)[O-])o2)CC1`, 4.6 µM; to `O=S(=O)(c1cccs1)N1CCN(c2ccnc3cc(Cl)ccc23)CC1`, > 30 µM (inactive).
For the compound `COc1ccc2[nH]c(-c3ccc(C)cc3)cc(=O)c2c1`, the AC50 was > 30 µM (inactive).
For `Cc1ccc(Cn2nc(-c3ccccc3)nc2-c2ccccc2)cc1`, the AC50 was > 30 µM (inactive).
The value for `Cc1csc(NC(=O)C2CCCN2C(=O)OCC(C)C)n1` (stereo not given) was > 30 µM (inactive); that for `COc1ccc(-c2cc(=O)c3ccccc3s2)cc1` was > 30 µM (inactive); that for `Cc1cccc(OCC(=O)N2CCN(c3nnc(-c4ccccc4)c4ccccc34)CC2)c1` was > 30 µM (inactive).
The value for `O=C(N/N=C/c1cccnc1)c1cccc(S(=O)(=O)N2CCCC2)c1` was > 30 µM (inactive).
The value for `CN1/C(=C\C=C2/SC(=S)NC2=O)C(C)(C)c2ccccc21` was 12.7 µM; that for `Cc1ccc(-n2cnc(N)c2C(=O)c2cccc([N+](=O)[O-])c2)cc1` was 10.8 µM; that for `CCOC(=O)CSc1nc(C)[nH]c1[N+](=O)[O-]` was > 30 µM (inactive).
Take `CCOc1cccc(-c2c(C(=O)N/N=C(\C)c3ccccn3)nnn2-c2nonc2N)c1`: the AC50 was 2.56 µM.
To `CN1/C(=C/C(=O)C2CC2)C(C)(C)c2ccccc21` belongs > 30 µM (inactive); to `c1ccc2[nH]c(C3CC3)nc2c1`, > 30 µM (inactive); to `COc1cc(NC(=O)c2nnn(Cc3ccc(SC)cc3)c2N)cc(OC)c1`, 13.6 µM.
`CCCOc1ccc(-c2nnc(N)s2)cc1`: the AC50 is > 30 µM (inactive).
The value for `CC(=O)Nc1ccc(C2(c3ccc(NC(C)=O)cc3)NC(=O)c3ccccc32)cc1` was > 30 µM (inactive); that for `O=[N+]([O-])c1ccc(NCCCN2CCOCC2)c2ncccc12` was > 30 µM (inactive); that for `O=C(c1ccc(Cn2cnnn2)cc1)N1CCCC(Nc2ccc(F)c(F)c2)C1` (stereo not given) was 16.1 µM.
To `CC1(C)Cc2c(sc3nn[nH]c(=O)c23)CO1` belongs > 30 µM (inactive); to `CC1(C)Cc2cccc(C(=O)NCc3ccco3)c2O1`, > 30 µM (inactive); to `Cc1ccc(-c2noc(CSc3nnnn3-c3ccccc3)n2)cc1`, > 30 µM (inactive).
The value for `Cc1onc(-c2ccccc2Cl)c1C(=O)Nc1ccc(-c2cn3cccnc3n2)cc1` was > 30 µM (inactive).
Turning to `COc1ccc(NC(=O)Nc2ccc(F)cc2)c(C)c1`, the AC50 is > 30 µM (inactive).
With `Cc1noc(C)c1COc1ccc2ccc(=O)oc2c1`, the AC50 was > 30 µM (inactive).
To `CCOc1cccc(-c2c(C(=O)N/N=C/c3ccoc3)nnn2-c2nonc2N)c1` belongs 6.81 µM; to `CC(=O)c1cc(-c2ccc(F)cc2)n(CCC(=O)NC(C)(C)C)c1C`, > 30 µM (inactive).
To `O=C(Nc1c(C(=O)C2CC2)oc2ccccc12)c1ccc(Cl)cc1` belongs > 30 µM (inactive).
Regarding `CCOc1ccc(-c2nnc(N)o2)cc1`, the AC50 was > 30 µM (inactive).
To `Cc1ccc(C(=O)c2cnc3cc4c(cc3c2S(=O)(=O)c2ccccc2)OCCO4)cc1` belongs > 30 µM (inactive); to `Cc1cc(NCc2ccco2)n2c(nc3ccccc32)c1C#N`, > 30 µM (inactive); to `CC(=O)Nc1cccc(-c2cnc(N)c(C(=O)c3cccnc3)n2)c1`, 0.105 µM.
The value for `CCSc1nnc([C@@H](N)Cc2c[nH]c3ccccc23)o1` was > 30 µM (inactive); that for `CCOC(=O)c1ccc(NC(=S)NCCc2ccccc2)cc1` was > 30 µM (inactive); that for `Cc1ccnc(NC(=O)CCC(=O)N(CC(=O)NCc2ccc(F)cc2)Cc2ccco2)c1` was > 30 µM (inactive).
Regarding `O=[N+]([O-])c1cc(S(=O)(=O)N2CCCCC2)ccc1NCCCN1CCOCC1`, the AC50 is > 30 µM (inactive).
As to `O=C(Nc1nnc(-c2ccco2)s1)C1CCCCC1`, the AC50 is > 30 µM (inactive).
For `Nn1c(SCc2ccccc2F)nnc1-c1ccncc1`, the AC50 is > 30 µM (inactive).
The value for `COCCNc1nc(C)cc(-c2cc(C(=O)NC3CCCC3)on2)n1` was > 30 µM (inactive); that for `COC(=O)C1=C(C)Nc2ncnn2C1c1ccco1` (stereo not given) was > 30 µM (inactive); that for `C=CCNC(=S)N/N=C(\C)c1ccc(OC)cc1` was > 30 µM (inactive).
To `CC1(C)CC(=O)C2=C(C1)Nc1[nH]n(-c3ccccc3)c(=O)c1C2c1ccc2c(c1)OCO2` (stereo not given) belongs > 30 µM (inactive).
`COC(=O)c1sccc1NC(=O)c1ccccc1`: the AC50 was > 30 µM (inactive).
To `COc1c(C)cc(Br)cc1C(=O)Nc1cccc(NC(=O)c2ccco2)c1` belongs > 30 µM (inactive); to `Cc1ccc(N(Cc2ccc([N+](=O)[O-])cc2)C(=O)c2ccco2)cc1`, > 30 µM (inactive); to `COc1ccc(-c2cc(C(F)(F)F)nc(SCC(=O)NCc3ccco3)n2)cc1OC`, > 30 µM (inactive).
Regarding `Cc1ccc(C2CC(=O)N3CN(Cc4ccco4)CSC3=C2C#N)cc1` (stereo not given), the AC50 was > 30 µM (inactive).
To `COc1ccc(OC)c(/C=C2\Oc3cc(OCC(=O)N4CCC[C@H]4C(=O)O)ccc3C2=O)c1` belongs > 30 µM (inactive).
To `Cc1cn(C2OC(CC(=O)Oc3ccccc3)C(O)C2O)c(=O)[nH]c1=O` (stereo not given) belongs 19.1 µM; to `O=C(c1ccco1)N(Cc1ccc([N+](=O)[O-])cc1)c1ccc(Br)cc1`, > 30 µM (inactive).
Consider `CN1/C(=C\C=C(/C#N)C(=O)Nc2ccc(Cl)cc2)C(C)(C)c2ccccc21`, for which the AC50 was > 30 µM (inactive).
In the case of `NC(=O)c1sc2nc3c(c(-c4ccco4)c2c1N)CCCC3`, the AC50 is 13.6 µM.
To `Cc1ccc(Cc2c(C)nc3nc(SCC(=O)NCCCN4CCCCCC4)nn3c2C)cc1` belongs > 30 µM (inactive).
Turning to `CCOc1cc(/C=N/Nc2ncnc(Cl)c2N)ccc1O`, the AC50 is 29.6 µM.
Regarding `COc1cc(/C=c2\s/c(=C\C(=O)C(C)(C)C)[nH]c2=O)cc(OC)c1OC`, the AC50 was > 30 µM (inactive).
To `O=C(c1ccco1)N(Cc1cccc([N+](=O)[O-])c1)c1ccc(Br)cc1` belongs > 30 µM (inactive).
The value for `COc1cccc(/C=C2\Oc3cc(OCC(=O)N4CCC[C@H]4C(=O)O)ccc3C2=O)c1` was > 30 µM (inactive).
The value for `CCOc1cccc(-c2c(C(=O)N/N=C/c3cccnc3)nnn2-c2nonc2N)c1` was 4.67 µM; that for `CC(C)(C)N=Cc1c(O)ccc2oc3c(c12)CCCC3` was > 30 µM (inactive); that for `COC(=O)c1oc2ccc(Br)cc2c1NC(=O)c1ccccc1` was > 30 µM (inactive).
As for `CC(=C/c1ccccc1)/C=N/NC(=O)c1nnn(-c2nonc2N)c1CN1CCC(C)CC1`, the AC50 was > 30 µM (inactive).
The value for `CCc1c(C)sc(NC(=O)C2CC2c2ccccc2)c1C(N)=O` (stereo not given) was > 30 µM (inactive).
To `COc1ccc(CC(=S)N2CCOCC2)cc1OC` belongs > 30 µM (inactive).
For `Cc1nnc(SCC(=O)Nc2sc3c(c2C(=O)c2ccccc2)CCCC3)s1`, the AC50 was > 30 µM (inactive).
To `NC(=O)c1oc2ccccc2c1NC(=O)c1ccc(F)cc1` belongs > 30 µM (inactive).
As to `CCCCOC(=O)C1=C(C)Nc2ncnn2C1c1cc(OC)ccc1OC` (stereo not given), the AC50 was > 30 µM (inactive).
The value for `CC(=NCCO)c1c(O)n(C2CCCCC2)c(=O)[nH]c1=O` was 26.9 µM; that for `O=C(O)c1ccc(Cl)c(NC(=O)C2CCCN2S(=O)(=O)c2cccc3nsnc23)c1` (stereo not given) was 19.1 µM; that for `COc1ccc(-n2c(O)c(C=NCCCn3ccnc3)c(=O)[nH]c2=O)cc1` was 5.43 µM.
As to `COC(=O)c1sc2nc(N3CCCCC3)c3c(c2c1N)CCCC3`, the AC50 is > 30 µM (inactive).
To `S=C(NCCC1=CCCCC1)Nc1ccccc1` belongs > 30 µM (inactive).
The value for `CC(=O)C1C(c2ccccc2)c2c(n[nH]c2C)CC1(C)O` (stereo not given) was > 30 µM (inactive).
For the compound `Cc1nnc(NC(=O)c2cccc(S(=O)(=O)N3CC(c4ccccc4)CC3=O)c2)s1` (stereo not given), the AC50 was > 30 µM (inactive).
To `CN(C)CCCNc1oc(-c2ccccc2)nc1C#N` belongs > 30 µM (inactive); to `Cc1ccc(-n2nnnc2CSc2nnc(-c3ccc(O)cc3)o2)cc1`, 5.51 µM.
The value for `CC(C)(C)C(=O)NC(=S)Nc1sc2c(c1C(N)=O)CCC2` was > 30 µM (inactive); that for `CC1=C(C(=O)OCc2ccc3c(c2)OCO3)C(c2ccccc2)NC(=O)N1` (stereo not given) was 1.97 µM; that for `O=[N+]([O-])c1ccc(NC2CCCC2)cc1` was > 30 µM (inactive).
To `Cc1ccnc(SCC(=O)Nc2sc3c(c2C#N)CCCC3)n1` belongs > 30 µM (inactive).
Regarding `O=C(CCCN1C(=O)C2CCCCN2C1=O)N1CCN(c2ccc([N+](=O)[O-])cc2)CC1` (stereo not given), the AC50 was > 30 µM (inactive).
`O=c1[nH]ncn1-c1ccccc1`: the AC50 was > 30 µM (inactive).
Consider `COc1ccc(-c2cc(=O)c3c(O)cc(O)cc3o2)cc1`, for which the AC50 is 4.21 µM.
To `O=Cc1cc(N=Nc2ccc(S(=O)(=O)O)cc2)ccc1O` belongs > 30 µM (inactive); to `c1ccc(-c2noc(CSc3nnnn3-c3ccccc3)n2)cc1`, > 30 µM (inactive); to `CCc1ccc(OCC(O)CNC(C)(C)C)cc1` (stereo not given), > 30 µM (inactive).
For the compound `COc1ccc(-c2nc(NC(=O)C3CC(=O)N(c4ccc5c(c4)OCCO5)C3)sc2C)cc1` (stereo not given), the AC50 was > 30 µM (inactive).

Values taken from PubChem BioAssay AID463203 (Broad Institute, 2010).
